Test results taken from PMC7878868, “Mechanisms of feedback inhibition and sequential firing of active sites in plant aspartate transcarbamoylase” (Nature Communications, 2021).
Changes are numbered by the printed parent chain. Where “and” joins values, the source holds several entries; their conditions need not be identical. Equal entries are not always repeated. Where two headings read alike, the source gives them in different places.

How the values were obtained:
[1] = molecular target: T1, atATC (Arabidopsis ATC aa 82–390) WT (Arabidopsis thaliana, UniProt P49077); experiment: Isothermal titration calorimetry (ITC), atATC WT; assay type: binding; settings: ITC; for Kd: 25 °C
T1 construct: 2.6 kDa fusion tag (modified pET28a); made in house; host or cells: E. coli BLR(DE3)-pLysS
T1 sequence (P49077 82-390): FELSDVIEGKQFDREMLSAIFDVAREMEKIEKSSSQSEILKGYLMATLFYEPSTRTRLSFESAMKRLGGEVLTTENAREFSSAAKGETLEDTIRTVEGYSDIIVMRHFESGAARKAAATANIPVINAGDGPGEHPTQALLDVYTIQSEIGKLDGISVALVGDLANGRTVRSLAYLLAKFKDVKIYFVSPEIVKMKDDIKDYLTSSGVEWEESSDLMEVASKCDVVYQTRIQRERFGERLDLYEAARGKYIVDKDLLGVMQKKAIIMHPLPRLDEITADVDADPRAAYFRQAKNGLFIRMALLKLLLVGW
Description: (§1) Experiments were performed in an Auto-iTC200 calorimeter (MicroCal, Malvern-Panalytical) at 25 °C with a 0.2 ml reaction cell and 30–40 µM protein solution (in protomer units) in the cell. […] All solutions were in GF buffer and degassed and mixed in the cell by stirring at 750 rpm. Data analysis was performed with Origin 7 (OriginLab) using a general three-site cooperative and a non-cooperative binding model, restricted to one or two ligand binding sites when convenient[24],[62],[63]. Non-linear least-squares regression analysis was employed to estimate dissociation constants for the interaction of the different ligands with ATC.

atATC WT:PALA = molecular target: T2, atATC WT:PALA (Arabidopsis thaliana, UniProt P49077); experiment: ITC, atATC WT prebound to PALA (WT:PALA); assay type: binding
T2 construct: 2.6 kDa fusion tag (modified pET28a); made in house; host or cells: E. coli BLR(DE3)-pLysS
T2 sequence (P49077 82-390): T1 sequence (P49077 82-390)
Description: as §1

atATC-F161A [2] = molecular target: T3, atATC-F161A (Arabidopsis thaliana, UniProt P49077, F161A); experiment: biochemical; assay type: binding; settings: F161A; 70 µM UMP at most, 30-40 µM protein
T3 construct: 2.6 kDa fusion tag (modified pET28a); made in house; host or cells: E. coli BLR(DE3)-pLysS
T3 sequence (P49077 82-390 F161A): T1 sequence (P49077 82-390) with F80A
Description: as §1

atATC WT = molecular target: T4, atATC WT (Arabidopsis thaliana, UniProt P49077); experiment: Colorimetric ATC activity assay, atATC WT; assay type: biochemical; settings: 10 mM Asp
T4 construct: 2.6 kDa fusion tag (modified pET28a); made in house; host or cells: E. coli BLR(DE3)-pLysS
T4 sequence (P49077 82-390): T1 sequence (P49077 82-390)
Description: (§2) Activity was assayed by a colorimetric method[64] adapted to a 96-well plate format. […] Reagent B is light sensitive and was stored at 4 °C in the dark. The color reagents were gently mixed and stored at 4 °C in the dark until added to the sample. Reaction tubes were closed, boiled at 95 °C for 15 min, and kept in the dark for 30 min before measuring the absorbance at 450 nm in a Tecan infinite m200 microplate reader (Tecan). […] Data analysis was done with GraphPad. […] Protein concentration in the assay was 0.3 µM (0.01 mg ml^−1) both for WT and F161A.

atATC-F161A [3] = molecular target: T3, atATC-F161A; experiment: Colorimetric ATC activity assay, atATC F161A; assay type: biochemical; settings: for Activity F161A: 10 mM Asp
Description: as §2

[4] = ITC, protein prebound to PALA, site 2
[5] = ITC, protein prebound to PALA, site 3

Question: For O=c1ccn([C@@H]2O[C@H](COP(=O)(O)O)[C@@H](O)[C@H]2O)c(=O)[nH]1 [UMP, uridine 5-monophosphate], which “N, number of binding sites per protein trimer according to the ligand binding model” value [1] is on record?
Answer: 3

Question: What about the “fold higher affinity for UMP than for CP” value [1] of the same compound?
Answer: ~400 fold

Question: And the “fold higher affinity for UMP than for the transition-state analog (PALA)” value [1]?
Answer: 3 fold

Question: And the Kd ([1]; site 1, read-out: KD Site 1)?
Answer: 210 nM and 200 nM

Question: What about the Kd ([1]; site 2, read-out: KD Site 2) of the same compound?
Answer: 2300 nM

Question: And the Kd ([1]; site 3, read-out: KD Site 3)?
Answer: 1600 nM

Question: And the “fold reduction of the affinity of the other subunits after binding to the first site” value ([1]; negative cooperativity)?
Answer: 10 fold

Question: What about the “-TΔS Site 1” value ([1]; site 1) of the same compound?
Answer: -6.3 kcal/mol

Question: What about the “ΔG Site 1” value ([1]; site 1) of the same compound?
Answer: -9.1 kcal/mol

Question: What about the “ΔH Site 1” value ([1]; site 1) of the same compound?
Answer: -2.8 kcal/mol

Question: What about the “-TΔS Site 2” value ([1]; site 2) of the same compound?
Answer: -8.9 kcal/mol

Question: And the “ΔG Site 2” value ([1]; site 2)?
Answer: -7.7 kcal/mol

Question: What about the “ΔH Site 2” value ([1]; site 2) of the same compound?
Answer: 1.2 kcal/mol

Question: What about the “-TΔS Site 3” value ([1]; site 3) of the same compound?
Answer: -7.4 kcal/mol

Question: What about the “ΔG Site 3” value ([1]; site 3) of the same compound?
Answer: -7.9 kcal/mol

Question: And the “ΔH Site 3” value ([1]; site 3)?
Answer: -0.5 kcal/mol

Question: And the “N, number of binding sites per protein trimer according to the ligand binding model” value (atATC WT:PALA; ITC, protein prebound to PALA)?
Answer: 2

Question: What about the “-TΔS Site 2” value (atATC WT:PALA; [4]) of the same compound?
Answer: -8.5 kcal/mol

Question: And the “ΔG Site 2” value (atATC WT:PALA; [4])?
Answer: -8.1 kcal/mol

Question: What about the “ΔH Site 2” value (atATC WT:PALA; [4]) of the same compound?
Answer: 0.4 kcal/mol

Question: And the “-TΔS Site 3” value (atATC WT:PALA; [5])?
Answer: -8.5 kcal/mol

Question: What about the “ΔG Site 3” value (atATC WT:PALA; [5]) of the same compound?
Answer: -8.1 kcal/mol

Question: And the “ΔH Site 3” value (atATC WT:PALA; [5])?
Answer: 0.4 kcal/mol

Question: And the Kd (atATC WT:PALA; read-out: KD Site 2)?
Answer: 1200 nM

Question: And the “binding detected by ITC” value (atATC-F161A [2])?
Answer: failed to detect the binding

Question: What about the “Activity WT” value (atATC WT; 0.1 mM UMP, [CP] 0.31 mM) of the same compound?
Answer: 4.11 nmol / min μg and 7.63 nmol / min μg and 5.39 nmol / min μg

Question: And the “Activity WT” value (atATC WT; 0.1 mM UMP, [CP] 1.25 mM)?
Answer: 41.20 nmol / min μg and 48.03 nmol / min μg and 40.64 nmol / min μg

Question: And the “Activity WT” value (atATC WT; 0.1 mM UMP, [CP] 2.50 mM)?
Answer: 66.92 nmol / min μg and 70.05 nmol / min μg and 71.44 nmol / min μg

Question: And the “Activity WT” value (atATC WT; 0.1 mM UMP, [CP] 3.00 mM)?
Answer: 72.17 nmol / min μg and 74.13 nmol / min μg and 71.50 nmol / min μg

Question: And the “Activity WT” value (atATC WT; 0.1 mM UMP, [CP] 4.00 mM)?
Answer: 77.07 nmol / min μg and 76.02 nmol / min μg and 75.78 nmol / min μg

Question: And the “Activity WT” value (atATC WT; 0.1 mM UMP, [CP] 5.00 mM)?
Answer: 76.47 nmol / min μg and 78.06 nmol / min μg and 76.19 nmol / min μg

Question: What about the “Activity WT” value (atATC WT; 0.4 mM UMP, [CP] 1.25 mM) of the same compound?
Answer: 9.87 nmol / min μg and 11.15 nmol / min μg and 12.99 nmol / min μg

Question: And the “Activity WT” value (atATC WT; 0.4 mM UMP, [CP] 2.50 mM)?
Answer: 28.61 nmol / min μg and 31.67 nmol / min μg and 35.52 nmol / min μg

Question: And the “Activity WT” value (atATC WT; 0.4 mM UMP, [CP] 3.00 mM)?
Answer: 41.63 nmol / min μg and 37.33 nmol / min μg and 40.36 nmol / min μg

Question: And the “Activity WT” value (atATC WT; 0.4 mM UMP, [CP] 4.00 mM)?
Answer: 48.76 nmol / min μg and 50.91 nmol / min μg and 53.68 nmol / min μg

Question: And the “Activity WT” value (atATC WT; 0.4 mM UMP, [CP] 5.00 mM)?
Answer: 58.15 nmol / min μg and 59.40 nmol / min μg and 57.60 nmol / min μg

Question: What about the “Activity F161A” value (atATC-F161A [3]; 0.2 mM UMP, [CP] 0.31 mM) of the same compound?
Answer: 31.06 nmol / min μg and 26.77 nmol / min μg and 21.39 nmol / min μg

Question: And the “Activity F161A” value (atATC-F161A [3]; 0.2 mM UMP, [CP] 0.63 mM)?
Answer: 62.38 nmol / min μg and 46.00 nmol / min μg and 48.44 nmol / min μg

Question: What about the “Activity F161A” value (atATC-F161A [3]; 0.2 mM UMP, [CP] 1.25 mM) of the same compound?
Answer: 61.36 nmol / min μg and 58.95 nmol / min μg and 63.80 nmol / min μg

Question: What about the “Activity F161A” value (atATC-F161A [3]; 0.2 mM UMP, [CP] 2.50 mM) of the same compound?
Answer: 64.72 nmol / min μg and 56.89 nmol / min μg and 56.14 nmol / min μg

Question: And the “Activity F161A” value (atATC-F161A [3]; 0.4 mM UMP, [CP] 0.31 mM)?
Answer: 27.07 nmol / min μg and 21.22 nmol / min μg and 30.75 nmol / min μg

Question: And the “Activity F161A” value (atATC-F161A [3]; 0.4 mM UMP, [CP] 0.63 mM)?
Answer: 50.59 nmol / min μg and 53.67 nmol / min μg and 49.88 nmol / min μg

Question: And the “Activity F161A” value (atATC-F161A [3]; 0.4 mM UMP, [CP] 1.25 mM)?
Answer: 68.18 nmol / min μg and 58.61 nmol / min μg and 62.41 nmol / min μg

Question: What about the “Activity F161A” value (atATC-F161A [3]; 0.4 mM UMP, [CP] 2.50 mM) of the same compound?
Answer: 55.88 nmol / min μg and 59.00 nmol / min μg and 63.38 nmol / min μg

Question: And the “inhibition of enzyme activity by UMP” value (atATC-F161A [3]; F161A)?
Answer: not inhibited
